This is an account of results in ChEMBL document CHEMBL4385590, “A Survey of the Structures of US FDA Approved Combination Drugs” (J Med Chem, 2019).

A short description of the data set: Half-life in human serum administered once daily.

In general, half-life refers to the time in which the quantity being followed falls by half. A higher half-life goes with slow loss. `Nc1nc(=O)n([C@@H]2CS[C@H](CO)O2)cc1F` [EMTRICITABINE] showed a half-life of 10 h.
